Reference: patent publication US20040258620A1, “(Ethylene)-( propylene)-triaminepentaacetic acid derivatives, process for their production, and their use for the production of pharmaceutical agents” (priority 2001, published 2004)
Where two headings read alike, the source gives them in different places.

What was measured:
[1] = cited from earlier work
[2] = Stability constants of the Ca complexes by pH-potentiometry; format: physicochemical
From the text: (§1) Protonation constants of the two ligands, DPTPA and EPTPA-Bz-NO2, and stability constants of their complexes formed with Gd(III) and some endogenously available cations have been determined by pH-potentiometry. The selectivity of the ligand for Gd(III) over Zn(II) (log(KGdL/KZnL)) is especially important as it directly relates to the safety of the Gd(III) contrast agent.

[3] = Simultaneous analysis of 17O NMR, EPR and NMRD data; details: for ΔH^‡ / ΔS^‡: water exchange; for kex^298: water exchange rate
From the text: The ^17O NMR, NMRD and EPR experimental data (points) and the fitted curves (lines) as obtained in a simultaneous analysis, according to the method of Powell et al., J. Am. Chem. Soc.

[4] = Protonation constants of the ligands by pH-potentiometry; format: physicochemical; details: protonation constant of the ligand; I=0.1M TMACI, t=25° C.
From the text: as §1

[5] = Stability constants of the complexes formed with Gd(III) by pH-potentiometry; format: physicochemical; details: I=0.1M TMACI, t=25° C.
From the text: as §1

[6] = Stability constants of the complexes formed with Zn(II) by pH-potentiometry; format: physicochemical; details: I=0.1M TMACI, t=25° C.
From the text: as §1

[7] = IUPAC Stability constants. Academic Software and K. J. Powell, 1999; cited from earlier work
[8] = IUPAC Stability constants. Academic Software and K. J. Powell, 1999; cited from earlier work; remark: listed apart in the source
[9] = IUPAC Stability constants. Academic Software and K. J. Powell, 1999; cited from earlier work; remark: listed apart in the source

Compound: O=C([O-])CN1CCCN(CC(=O)[O-])CCN(CC(=O)[O-])CCN(CC(=O)[O-])CC1.[Gd+3] [Gd(III)(TRITA)]
- thermodynamic stability constant, logβ ([1]; determined by potentiometry [Clarke and Martell, Inorg. Chim, Acta, 1991]): 19.2

Compound: O=C(O)CN(CCCN(CC(=O)O)CC(Cc1ccc([N+](=O)[O-])cc1)N(CC(=O)O)CC(=O)O)CC(=O)O (centres unmarked) [EPTPA-bz-NO2]
- logKCaHL [2]: 7.04
- logKCaL ([2]; stability constant): 10.02
- A/ħ ([3]; Gd(III) complex of the ligand): −3.5 ± 0.2 10^6 rad s^−1
- Er ([3]; Gd(III) complex of the ligand): 4.76 ± 0.406 kcal/mol
- Δ^2 ([3]; Gd(III) complex of the ligand): 0.37 ± 0.03 10^20 s^−1
- τr ([3]; Gd(III) complex of the ligand): 84.6 ± 6 ps
- τy ([3]; Gd(III) complex of the ligand): 20 ± 1 ps
- ΔH^‡ ([3]; Gd(III) complex of the ligand): 5.66 ± 0.43 kcal/mol
- ΔS^‡ ([3]; Gd(III) complex of the ligand): −9.2 ± 4.0 J mol^−1K^−1
- kex^298 ([3]; Gd(III) complex of the ligand): 146 ± 23 10^6 s^−1
- pKa1 [4]: 10.86
- pKa2 [4]: 8.94
- pKa3 [4]: 4.70
- pKa4 [4]: 3.25
- pKa5 [4]: 2.51
- logKGdH2L [5]: 2.40
- logKGdHL [5]: 3.35
- logKGdL ([5]; stability constant): 19.31
- logKZnH2L [6]: 2.53
- logKZnHL [6]: 8.99
- logKZnL ([6]; stability constant): 16.01

Compound: O=C(O)CN(CCN(CC(=O)O)CC(=O)O)CCN(CC(=O)O)CC(=O)O [DTPA, diethylenetriamine-pentaacetic acid, reference compound]
- logKGdHL [7]: 1.80
- logKGdL [7]: 22.50
- logKZnHL [8]: 3.0
- logKZnL [8]: 18.3
- logKCaHL [9]: 6.42
- logKCaL [9]: 10.89
- A/ħ ([3]; Gd(III) complex of the ligand): −3.8 ± 0.2 10^6 rad s^−1
- Ev ([3]; Gd(III) complex of the ligand): 0.382 ± 0.43 kcal/mol
- Δ^2 ([3]; Gd(III) complex of the ligand): 0.46 ± 0.02 10^20 s^−1
- τr ([3]; Gd(III) complex of the ligand): 58 ± 11 ps
- τy ([3]; Gd(III) complex of the ligand): 25 ± 1 ps
- ΔH^‡ ([3]; Gd(III) complex of the ligand): 12.3 ± 0.335 kcal/mol
- ΔS^‡ ([3]; Gd(III) complex of the ligand): 53.0 ± 4.7 J mol^−1K^−1
- kex^298 ([3]; Gd(III) complex of the ligand): 3.3 ± 0.2 10^6 s^−1
- Er ([3]; not told): 4.13 ± 0.19 kcal/mol

Compound: O=C([O-])CN(CCCN(CC(=O)[O-])CC(=O)[O-])CCN(CC(=O)[O-])CC(=O)[O-].[Gd+3] [Gd(III)(EPTPA), Gd(III) complex of 3,6,10-tri(carboxymethly)-3,6,10-triazadodecanedioic acid]
- thermodynamic stability constant, logo ([1]; determined by potentiometry (Wang et al, Dalton, 1998)): 22.77
